The record followed here is patent US9283236B2 (HUMAN MATRIX SCIENCES, LLC, priority 2008, dated 2016).

“Also recorded” adds a separate entry of the source.

For one data set, the system named is Akt. Nature of the data set: Western blot of phospho-Akt (Ser473). Type of data set: cell-based, human. How it is done:
(§1) Western blotting—Confluent fetal human cardiac fibroblast cultures were exposed with or without the treatment specified for the indicated time points. At the end of each experiment cells were lysed using an RIPA buffer (50 mM Tris.HCl, pH 7.4; 150 mM NaCl; 1 mM EDTA; 10 mM NaF; 1% Triton X-100; 0.1% SDS; 1% Na deoxycholate) containing a cocktail of antiproteases (20 μg/ml leupeptin, 10 μg/ml aprotinin, 0.1 mM PMSF, 1 mM DTT) and antiphosphates ([…] orthovanadate, 2 μg/ml pepstatin). Then 40-60 μg of protein extract was resuspended in sample buffer (0.5 M Tris.HCl, pH 6.8; 10% SDS; 10% glycerol; 4% 2-β-mercaptoethanol; and 0.05% bromophenol blue), and the mixture was boiled for 5 minutes. Protein lysates were resolved by precast SDS-PAGE gel (4-12% gradient), transferred to nitrocellulose membranes, blocked for an hour, and then immunoblotted with polyclonal anti-MR antibody, anti-phospho-c-Src (Tyr416) antibody, anti-phospho-Akt (Ser473) antibody, anti-Gα13 (goat) antibody, anti-SCAP2 antibody, or with buffer (TBS-T) at 4° C. overnight. All blots were then incubated with the appropriate HRP-conjugated secondary antibodies for an hour and examined using the enhanced chemiluminescence detection system. Blots were stripped and reprobed using specified antibodies. […] The degree of expression or phosphorylation of immunodetected signaling molecules was measured by densitometry.

Another data set relates to c-Src. Put plainly: Western blot of phospho-c-Src (Tyr416). Type of data set: cell-based, human. As for the experimental part:
as §1
(In general: Immunoblotting shows a protein as a band on a membrane.)

In data set [1] the test system is human fetal cardiac fibroblasts. Nature of the data set: Quantitative assay of [3H]valine-labeled insoluble elastin. Type of data set: cell-based. The note with it: 72 hours.
Data set [2] has the same test system. Put plainly: Immunostaining of elastic fibers with anti-elastin antibody. The class given is cell-based. Particulars: 10 μM PP2, 1 hour pretreatment, 50 nM aldosterone. As for the experimental part:
(§2) At the end of the 72-hour incubation period with the indicated treatment, confluent cultures were either fixed in ice-cold 100% methanol at −20° C. (for elastin staining) or in 4% paraformaldehyde at room temperature (for collagen staining) for 30 minutes and blocked with 1% normal goat serum for 1 hour at room temperature. The cultures were then incubated for 1 hour with 10 μg/ml polyclonal antibody to tropoelastin or with 10 μg/ml polyclonal antibody to collagen type I. All cultures were then incubated for an additional hour with fluorescein-conjugated goat anti-rabbit or with fluorescein-conjugated rabbit anti-goat secondary antibodies to detect elastin and collagen type I staining, respectively. Nuclei were counterstained with propidium iodide. Secondary antibody alone was used as a control. All of the cultures were then mounted in Elvanol and examined with a Nikon Eclipse E1000 microscope attached to a cooled charge-coupled device camera (Retiga EX; QImaging, Surrey, BC, Canada) and a computer-generated video analysis system (Image-Pro Plus software; Media Cybernetics, Silver Spring, Md.).
Immunostaining—At the end of the 72-hour incubation period with the indicated treatment, confluent cultures were fixed in cold 100% methanol at −20° C. […]

Data set [3] shares this test system. Nature of the data set: One-step RT-PCR of elastin mRNA in cardiac fibroblast cultures. Type of data set: cell-based.
Data set [4] shares this test system. Nature of the data set: One-step RT-PCR of collagen type I mRNA in cardiac fibroblast cultures. The note with it: 1 to 50 nmol/L, 24 hours, normalized to GAPDH mRNA, vs untreated control. The class given is cell-based.
Another data set relates to IGF-IR. Put plainly: IGF-IR immunoprecipitation and anti-phosphotyrosine blot. Type of data set: cell-based, human. How it is done:
Cells were lysed using an radioimmunoprecipitation assay buffer [50 mmol/L Tris-HCl, pH 7.4, 150 mmol/L NaCl, 1 mmol/L ethylenediamine tetraacetic acid, 10 mmol/L NaF, 1% Triton X-100, 0.1% sodium dodecyl sulfate, 1% sodium deoxycholate containing a cocktail of antiproteases (20 μg/ml leupeptin, 10 μg/ml aprotinin, 0.1 mmol/L phenylmethylsulfonyl fluoride, and 1 mmol/L dithiothreitol) and antiphosphates ([…] orthovanadate and 2 μg/ml pepstatin)], and 300 μg of protein extract was incubated with an antibody against IGF-IRβ for 1 hour at 4° C., followed by the addition of 4% protein A-beaded agarose left overnight, as previously described. The resulting protein-antibody conjugate was centrifuged at 4° C. and washed four times with phosphate-buffered saline. The final pellet was resuspended in sample buffer (0.5 mol/L Tris-HCl, pH 6.8, 10% sodium dodecyl sulfate, 10% glycerol, 4% 2-B-mercaptoethanol, and 0.05% bromphenol blue), and the mixture was boiled for 5 minutes. Proteins were resolved by 12% sodium dodecyl sulfate-polyacrylamide gel electrophoresis, transferred to nitrocellulose membranes, and then immunoblotted with anti-p-Tyr or anti-IGF-IR antibodies. The degree of expression or phosphorylation of immunodetected signaling molecules was measured by densitometry.
At the end of each experiment the cells were lysed as specified above, and 300 μg of protein extract were then precleared for 1 hour with normal rabbit agarose conjugated-IgG at 4° C. and incubated with rabbit polyclonal antibodies against IGF-IR-β, c-Src, or with Gα13 for 1 hour at 4° C., followed by the addition of 4% protein A-beaded agarose and left overnight. The resulting protein-antibody conjugate was centrifuged at 4° C. and washed four times with PBS. The final pellet was resuspended in sample buffer, and the proteins were resolved. Following immunoprecipitation of IGF-IR-β, the membrane was immunoblotted using monoclonal anti-p-Tyr antibody, stripped, and reprobed using anti-IGF-IR-β. Following immunoprecipitation of c-Src, the membranes were immunoblotted using polyclonal goat antibodies against anti-Gα13, while those immunoprecipitated with anti-Gα13 were developed with monoclonal anti-c-Src antibody. Blots were stripped and re-probed for equal loading.
The degree of expression or phosphorylation of immunodetected signaling molecules was measured by densitometry.

Data set [5] deals with adult human cardiac fibroblasts. Nature of the data set: One-step RT-PCR of elastin mRNA in adult cardiac fibroblasts. The class given is cell-based. The note with it: 1 to 50 nmol/L, 24 hours, normalized to GAPDH mRNA.
The subject of the next data set is Gα13 and c-Src. Put plainly: Co-immunoprecipitation of Gα13 and c-Src. The class given is cell-based, human.
The subject of data set [6] is adult human cardiac fibroblasts. Put plainly: Anti-elastin immunostaining in adult cardiac fibroblasts. Type of data set: cell-based. Particulars: 1 to 50 nmol/L, 72 hours. How it is done: as §2, with “Control cell cultures received an equal amount of the solvent vehicle. […] ScienCell (San Diego, Calif.). At” for “At”, “-20°” for “−20°”, “(for elastin staining) or in 4% paraformaldehyde at room temperature (for collagen staining) for 30 minutes and blocked with 1% normal goat serum for 1 hour at room temperature.” left out, “E1000” left out

For data set [7], the system named is human fetal cardiac fibroblasts. Put plainly: Quantitative assay of [3H]valine-labeled immunoprecipitable tropoelastin. The note with it: 1 to 50 nmol/L, 72 hours, vs untreated. Type of data set: cell-based. As for the experimental part:
Fetal human cardiac fibroblasts were grown to confluence in 35-mm culture dishes (100,000 cells/dish) in quadruplicate. […] Cultures were incubated for 72 hours, and the soluble and insoluble elastin were assessed separately in each dish. The cells were extensively washed with phosphate-buffered saline, and the soluble proteins present in the intracellular compartments were extracted overnight at 4° C. with 0.1 mol/L acetic acid in the presence of proteinase inhibitors. After centrifugation, the supernatants were precleaned by 30-minute incubation with 50 μl of 4% protein A-beaded agarose, and then 500 μl of the supernatant was incubated with 5 μg of polyclonal antibody to tropoelastin for 2 hours and subsequently with 50 μl of 4% protein A-beaded agarose for 3 hours at 4° C. The protein A-containing beads were sedimented by centrifugation, washed with immunoprecipitation buffer, mixed with scintillation fluid, and counted. […] The resulting pellets containing the insoluble elastin were then solubilized by boiling in 200 μl of 5.7 N HCl for 1 hour, and the aliquots were mixed in scintillation fluid and counted. […] Final results reflecting amounts of metabolically labeled insoluble elastin in individual cultures were normalized per their DNA content and expressed as counts per minute per 1 μg of DNA.

Data set [8] shares this test system. Put plainly: Immunostaining of collagen type I fibers in confluent cultures. The note with it: 1 to 50 nmol/L, 72 hours. Type of data set: cell-based.
Data set [9] has the same test system. Put plainly: Cytotoxic effects of supraphysiological aldosterone in cardiac fibroblast cultures. The class given is cell-based. Particulars: aldosterone 100 nmol/L and 1 μmol/L.
The subject of data set [10] is rat myocardial infarction model. Put plainly: Rat myocardial infarction model, postinfarction scar. The note with it: treated during the postinfarction period, vs vehicle-treated animals. Type of data set: in vivo.
[11] abbreviates: 10 μM PP2 1 hour preincubation or 72 hour Gα13 siRNA transfection.
Setting [12] is: 50 nM aldosterone, 30 minutes to 16 hours.

As to `CC(C)(C)n1nc(-c2ccc(Cl)cc2)c2c(N)ncnc21` [PP2], the “effect on aldosterone-induced increase in phosphorylation of Akt” value with Akt (setting [11]) is “is indeed eliminated; also recorded: eliminates this effect”. The “effect on aldosterone-induced c-Src phosphorylation” value with c-Src (setting [11]) is listed as “abolished this effect”. In [1] (agent added 1 hour before aldosterone (50 nM or 1 to 50 nmol/L)), the “effect on aldosterone-induced increase in insoluble elastin production” value is recorded as “eliminated the aldosterone-induced increase in the net deposition of insoluble elastin”. In [2], the “effect on aldosterone-induced upregulation in elastic fiber production” value was “abolished an increase in elastin mRNA levels and the consequent upregulation in elastic fiber production”. For the same compound, the “effect on aldosterone-induced increase in elastin mRNA levels” value in data set [3] (agent added 1 hour (CT04 2 hours) before aldosterone, 24 hours) is listed as “abolished an increase in elastin mRNA levels”.

For the compound `C[C@]12CCC(=O)C=C1CC[C@@H]1[C@@H]2[C@@H](O)C[C@]2(C=O)[C@@H](C(=O)CO)CC[C@@H]12` [aldosterone], in the data set on Akt (50 nM aldosterone, 10 minutes), the “basal phosphorylation of Akt” value was “significant increase in the basal phosphorylation of Akt”. Moreover, the “phosphorylation of c-Src on Tyr416” value in the data set with c-Src (50 nM aldosterone, 10 minutes) is “increased phosphorylation of c-Src on Tyr416; also recorded: leading to activation of c-Src”. Further, the “[3H]valine incorporation into insoluble elastin” value in [1] (1 to 50 nmol/L, vs untreated) is “proportional increase; also recorded: incorporate significantly more [^3H]valine into extracellular insoluble elastin”. The “collagen type I mRNA transcript levels” value in data set [4] is “significant increase in the steady-state level of collagen type I mRNA; also recorded: significantly increased collagen type I mRNA transcript levels”. Further, the “IGF-IR tyrosine phosphorylation, aldosterone together with IGF-I vs IGF-I alone” value in the data set on IGF-IR (50 nmol/L aldosterone with 10, 25 or 50 ng/ml IGF-I, serum-free, 10 minutes) was “exhibit higher levels of IGF-IR tyrosine phosphorylation than their respective counterparts treated with the same doses of IGF-I alone”. Also, the “tyrosine phosphorylation of the IGF-IR” value in the data set on IGF-IR (10-minute exposure, 10% fetal bovine serum, aldosterone or BSA-conjugate 50 nM, IGF-I 100 ng/ml) is listed as “transient increase in tyrosine phosphorylation of the IGF-IR above basal level; also recorded: produced a transient increase in tyrosine phosphorylation of the IGF-IR in control cultures; also recorded: significant increase in tyrosine phosphorylation of IGF-IR over basal levels”. Further, the “tyrosine phosphorylation of the IGF-IR, dependence on serum” value in the data set on IGF-IR (presence vs absence of fetal bovine serum) was “induced a similar effect only in the presence of serum”. In addition, the “elastin mRNA transcript levels, adult cardiac fibroblasts” value in data set [5] is “dose-dependently increased elastin mRNA transcript levels”. Moreover, the “time at which the Gα13/c-Src interaction was most evident” value with Gα13 and c-Src (50 nM aldosterone for 1, 5 or 10 minutes) is 5 min. Also, the “interaction between c-Src and Gα13” value in the data set on Gα13 and c-Src (vs untreated controls) was “increases the interaction between Gα13 and c-Src”. For the same compound, the “number of immunodetectable elastic fibers, adult cardiac fibroblasts” value in data set [6] is given as “significantly increased the number of immunodetectable elastic fibers”. The “[3H]valine-labeled tropoelastin” value in data set [7] is on record as “proportional increase; also recorded: up to approximately three times more”. In data set [8], the “deposition of collagen fibers” value is given as “subsequent deposition of collagen fibers”. Moreover, in data set [9], the cytotoxic effects result was “did not produce any cytotoxic effects”. Also, in [3] (setting [12]), the “time at which tropoelastin mRNA begins to significantly increase” value was determined as 1 h and the “time of maximum tropoelastin mRNA level” value is 3 to 6 h. For the same compound, in data set [3] (1 to 50 nmol/L, 24 hours, normalized to GAPDH mRNA, vs untreated control), the “elastin mRNA transcript levels” value is “heightened elastin mRNA levels, in a dose-dependent manner; also recorded: dose-dependently increased elastin mRNA transcript levels”.

As to `COC(=O)[C@@H]1CC2=CC(=O)CC[C@]2(C)[C@@]23O[C@@H]2C[C@@]2(C)[C@@H](CC[C@@]24CCC(=O)O4)[C@H]13` [eplerenone], the postinfarction scar composition entry in data set [10] is “produced scars with abundant elastic fibers”.
